Assay results published in patent US11230711B2, “Inhibition of LET7I as a means to enhance the protective effect of progesterone against stroke” (UNIVERSITY OF NORTH TEXAS HEALTH SCIENCE CENTER, priority 2017, dated 2022).

How the values were obtained:
[1] = system: primary cortical astrocytes; assay: BDNF release from primary cortical astrocytes, BDNF in situ ELISA; type: cell-based, mouse
Procedure: To define the amount of endogenous BDNF released, we will modify the ELISA in situ protocol developed by Promega. A 96-well Nunc MaxiSorp surface polystyrene flat-bottom immunoplate was precoated with an anti-BDNF monoclonal antibody [diluted 1:1,000 in coating buffer (25 mM sodium bicarbonate and 25 mM sodium carbonate, pH 9.7)]. After rinsing off unbound antibody with TBS-T buffer [20 mM Tris-HCl (pH 7.6), 150 mM NaCl and 0.05% (v/v) Tween-20] and blocking the plate to minimize nonspecific binding, the culture media was added to the plate for 2 hrs to equilibrate the cell growth environment. […] The amount of specifically bound polyclonal antibody was then detected through the use of the anti-IgY-horseradish peroxidase (HRP) tertiary antibody (final concentration=0.5 μg/mL), which when exposed to the chromogenic substrate (TMB reagent; Promega), changes color in proportion to the amount of BDNF present in the sample. The color intensity was quantified by measuring the absorbance at 450 nm with a Viktor3 ELISA plate reader (Perkin Elmer). […] The amount of specifically bound polyclonal antibody was then detected through the use of the anti-IgY-horseradish peroxidase (HRP) tertiary antibody, which when exposed to the chromogenic substrate (TMB reagent, Promega), changes color in proportion to the amount of BDNF present in the sample. […]

[2] = system: let-7i; assay: let-7i expression in the penumbra of the ischemic brain after MCAo (qRT-PCR); type: in vivo, mouse; conditions: MCAo mice; day 7 up to 14 days following stroke; FIG. 11E
Excerpt: (FIG. 11A) Representative immunoblots probed for Pgrmc1, pro- and mature-BDNF. (FIG. 11B) Quantitation graph of relative Pgrmc1 protein ratio to Gapdh (n=4-5 per group). (FIG. 11C) Quantitation graph of relative pro-BDNF protein ratio to Gapdh (n=4-5 per group). (FIG. 11D) Quantitation graph of relative mature BDNF protein ratio to Gapdh (n=4-5 per group). (FIG. 11E) Quantitation graph of relative let-7i expression in ischemic brain (n=4-5 per group). n.s: not significant, ** P<0.01 and *P<0.05 compared to sham, and #P<0.05 compared to P4+scrambled. Data are presented as the mean±SEM.
For miRNA expression measurements, total RNA (10 ng) was reverse transcribed into cDNA in a total volume of 15 μl using the microRNA cDNA Archive Kit (ThermoFisher Scientific) according to the manufacturer's instructions. The reaction mixture contained water, 2× quantitative PCR Master Mix (Eurogentec), and 20× Assay-On-Demand for each target gene. A separate reaction mixture was prepared for the endogenous control, U6. The reaction mixture was aliquoted in a 96-well plate, and cDNA added to give a final volume of 20 μl. Each sample was analyzed in triplicate. The comparative cycle threshold (Ct) method (2^−ΔΔCt) was used to calculate the relative changes in target miRNA expression.
All mice were first ovariectomized to deplete endogenous ovarian hormone levels. […]

For CC(=O)[C@H]1CC[C@H]2[C@@H]3CCC4=CC(=O)CC[C@]4(C)[C@H]3CC[C@]12C [P4, progesterone], the “BDNF release in P4-treated cultures” value ([1]; astrocyte cultures, control cultures as little as 2 pg/ml) was about 250 pg/mL, the “P4-induced BDNF release after OGD” value ([1]; primary cortical astrocytes exposed to one-hour OGD, FIG. 8B) was “compromised” and the “stroke-induced increase in let-7i expression in the penumbra” value [2] was “did not attenuate”.
